Series [1] addresses T1, human recombinant MCH-1 receptor (Homo sapiens, UniProt Q99705).
T1 construct: purchased Euroscreen S.A. (PerkinElmer)
Nature of the series: Time-resolved fluorescence (TRF)-based MCHR1 receptor-binding assay with Eu-MCH. The settings on record: for inhibition at 10 µM: TRF MCHR1 binding, read-out: inhibition rate (%) at 10 μM; for IC50: TRF-based binding, 2 nM Eu-MCH. The protocol:
(§1) An in vitro time-resolved fluorescence (TRF)-based binding assay for MCHR1 was performed to identify the MCHR1 antagonist from the 19 predicted compounds selected through in silico screening. […] In addition, a patch clamp assay was performed to measure the cardiotoxicity of the five compounds. […] Consequently, of the five compounds, only KRX-104130 and KRX-104165 overcame cardiotoxicity.
The receptor-binding affinities of the generated 19 compounds were determined by time-resolved fluorescence (TRF)-based receptor-binding assays using europium-labeled MCH (Eu-MCH) in 96-well AcroWell™ plates. The MCH labeled with europium at the N-1 position was supplied by the Wallac Labeling Service (PerkinElmer, Inc., Waltham, MA, USA). The human recombinant MCH-1 receptor membrane preparation (MCH-1/SLC1 membrane) was obtained from Euroscreen S.A. (PerkinElmer). The binding assay buffer contained 25 mM 4-(2-hydroxyethyl)-1-piperazineethanesulfonic acid (HEPES; pH 7.4), 5 mM MgCl2, 1 mM CaCl2, and 0.5% bovine serum albumin. Total binding was determined from the binding reaction in the presence of 2 nM Eu-MCH and 5 μg/unit MCH-1 receptor membrane for 90 min. Nonspecific Eu–MCH binding was defined in the presence of 0.5 µM unlabeled MCH. After incubation for 90 min, the plate was washed three times with 300 µL of ice-cold 25 mM HEPES buffer (pH 7.4) in an automatic vacuum filtration system. The Eu was dissociated from the bound ligand by the addition of 150 µL of DELFIA enhancement solution (Perkin Elmer) and incubated for 10 min with shaking. Fluorescence signals from dissociated Eu were measured using a multilabel reader (Envision, PerkinElmer) with an excitation wavelength (340 nm) and an emission wavelength (615 nm).

The target in another series is T2, hERG channel (Homo sapiens, UniProt Q12809).
T2 construct: host or cells: HEK293
T2 sequence (Q12809 whole entry): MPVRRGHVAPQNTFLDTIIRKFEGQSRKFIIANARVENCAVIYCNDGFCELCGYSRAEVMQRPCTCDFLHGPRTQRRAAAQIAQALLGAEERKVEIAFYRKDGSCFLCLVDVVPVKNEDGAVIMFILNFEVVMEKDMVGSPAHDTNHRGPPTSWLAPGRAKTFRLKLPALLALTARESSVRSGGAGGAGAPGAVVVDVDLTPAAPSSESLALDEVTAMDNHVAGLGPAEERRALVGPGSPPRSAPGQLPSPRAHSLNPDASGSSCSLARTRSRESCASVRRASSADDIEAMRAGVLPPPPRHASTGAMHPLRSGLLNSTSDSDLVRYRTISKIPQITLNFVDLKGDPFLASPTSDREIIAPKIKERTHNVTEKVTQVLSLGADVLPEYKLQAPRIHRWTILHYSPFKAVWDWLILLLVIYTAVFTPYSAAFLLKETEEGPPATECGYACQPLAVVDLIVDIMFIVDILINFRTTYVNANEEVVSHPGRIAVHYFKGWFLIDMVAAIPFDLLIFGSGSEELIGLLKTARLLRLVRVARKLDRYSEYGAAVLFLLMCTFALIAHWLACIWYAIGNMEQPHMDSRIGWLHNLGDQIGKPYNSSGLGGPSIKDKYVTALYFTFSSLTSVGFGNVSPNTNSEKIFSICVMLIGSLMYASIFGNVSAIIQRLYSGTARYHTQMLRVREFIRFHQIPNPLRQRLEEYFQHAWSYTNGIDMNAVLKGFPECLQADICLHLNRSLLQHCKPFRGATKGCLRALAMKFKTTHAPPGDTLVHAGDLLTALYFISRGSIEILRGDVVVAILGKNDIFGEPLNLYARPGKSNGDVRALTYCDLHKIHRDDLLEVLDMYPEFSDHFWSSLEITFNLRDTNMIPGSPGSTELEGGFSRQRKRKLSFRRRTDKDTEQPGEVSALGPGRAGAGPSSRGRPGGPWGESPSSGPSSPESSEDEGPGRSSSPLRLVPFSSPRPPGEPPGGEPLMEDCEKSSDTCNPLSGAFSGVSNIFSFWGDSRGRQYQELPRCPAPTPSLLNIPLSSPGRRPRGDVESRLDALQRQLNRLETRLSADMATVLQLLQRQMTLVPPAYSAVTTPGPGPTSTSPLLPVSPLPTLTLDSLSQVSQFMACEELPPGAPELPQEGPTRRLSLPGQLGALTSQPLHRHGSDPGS
Nature of the series: Patch clamp assay on HEK293-hERG cells. The class given is cell-based. Here is the method:
as §1
Patch clamp assays were performed on HEK293 cells stably expressing the hERG channel (HEK293-hERG cells; Genionics, Switzerland). When the cells were more than 80% confluent, they were freshly dislodged from flasks with 0.05% trypsin–EDTA for 1–2 min, spun down twice at 700× g, suspended into the extracellular solution (in mmol/L at 1.8 × 10^6 per mL: 137 NaCl, 4 KCl, 1 MgCl2, 1.8 CaCl2, 10 HEPES, and 10 glucose, pH 7.4, adjusted with NaOH), and dispensed into a patch clamp plate. The cell density was adjusted to 2–3 × 10^5 cells/mL. After dispensing, the cells were applied to the AutoPatch system (PatchXpress 7000A, Molecular Devices, Sunnyvale, CA, USA). The hERG currents were evoked by two voltage pulses at 3 s interval. The voltage pulse consisted of a 100-ms step to −30 mV, a conditioning prepulse (2 s duration, +25 mV or +45 mV), followed by a test pulse (2 s duration, −30 mV) from a holding potential of −70 mV. After a 3 s interval at −70 mV, a second pulse protocol was applied, consisting of a 100-ms step to −30 mV, a prepulse (2 s duration, +45 mV), followed by a test pulse (2 s duration, −30 mV). Leak currents were linearly subtracted, extrapolating the current elicited by a 100-ms step to −80 mV from a holding potential of −70 mV. The experiment was initiated with a buffer control in the absence of the drug to calculate the IC50. The test compound was applied at low to high concentrations, and the tail current was monitored continuously. The compound effects were tested using six concentrations in three-fold dilutions from 1 to 300 µM.

Series [2] in a line: Plasma pharmacokinetic profile in mice (I.V. and P.O.). The settings on record: mice, pharmacokinetic study.

Molecules are shown by their SMILES.

Data on 4 compounds can be found in article PMC8998904, “Identification and New Indication of Melanin-Concentrating Hormone Receptor 1 (MCHR1) Antagonist Derived from Machine Learning and Transcriptome-Based Drug Repositioning Approaches” (International Journal of Molecular Sciences, 2022).

T1 sequence (Q99705 whole entry): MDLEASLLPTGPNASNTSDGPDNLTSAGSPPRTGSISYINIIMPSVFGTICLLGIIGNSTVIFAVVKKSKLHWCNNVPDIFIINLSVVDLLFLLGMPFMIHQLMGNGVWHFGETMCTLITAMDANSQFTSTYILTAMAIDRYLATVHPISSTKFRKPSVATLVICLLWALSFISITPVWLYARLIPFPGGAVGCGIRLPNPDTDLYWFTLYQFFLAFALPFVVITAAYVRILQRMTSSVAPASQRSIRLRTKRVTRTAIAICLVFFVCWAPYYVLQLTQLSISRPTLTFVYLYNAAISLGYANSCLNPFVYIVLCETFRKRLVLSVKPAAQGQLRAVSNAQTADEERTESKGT

`COc1nc2cc(F)c(F)cc2nc1NC(=O)NC1CCN(Cc2ccc3[nH]ncc3c2)CC1` [KRX-104161]: in series [1], the inhibition at 10 µM was 94.8% and the IC50 amounted to 10 nM. The compound also returned a concentration for half-maximal inhibition (IC50) against hERG channel of 180 nM.
As to `COc1nc2cc(F)c(F)cc2nc1NC(=O)NC1CCN(Cc2ccc3[nH]ccc3c2)CC1` [KRX-104156], in series [1], the inhibition at 10 µM turned out to be 100%. For the same compound, the IC50 in series [1] stood at 50 nM; against hERG channel it was 920 nM.
Regarding `CCN(CC)CCN(C)c1cnc2cc(NC(=O)c3ccc(-c4ccc(Cl)cc4)cc3)ccc2n1` [KRX-104137], in series [1], the inhibition at 10 µM amounted to 96% and the IC50 was 10 nM. On hERG channel, this compound registered an IC50 of 420 nM.
Consider `COc1nc2cc(F)c(F)cc2nc1NC(=O)NC1CCN(Cc2cn(C(C)=O)c3ccccc23)CC1` [KRX-104165], for which the inhibition at 10 µM in series [1] stood at 94.3%. Moreover, the IC50 in series [1] is 60 nM; at hERG channel, above 50000 nM. In addition, the “Tolerability / death after administration to mice” value in series [2] is “the mouse died immediately after administration”.

As usually defined, the inhibition is the drop in the measured response relative to a control, in per cent. Usually IC50 stands for the concentration that inhibits the measured activity by half.
